Results published in patent US20030092770A1, “Combination therapy for treatment of depression” (priority 2002, published 2003).

Tested on: mouse
Assay: Forced Swim Test (FST) in the mouse
Format: in vivo
Experimental: The duration of immobility during the last four minutes of the six minute test period is scored. A mouse is recorded as immobile when floating motionless or making only those movements necessary to keep its head above water.
An augmentation of action would be reflected by a reduction in immobility that is greater than the arithimetic sum of the effect of each agent alone. […] Standard statistical tests can be used to determine if this difference is significant. The same general strategy can be applied to the forced swim test as carried out in rats (below) as well as the tail suspension test, also described below.

SMILES: CC(CNS(=O)(=O)C(C)C)c1ccc(-c2ccsc2)cc1 (stereo not shown) [Example 392098]
- minimum effective dose (MED) in the Forced Swim Test (392098 alone, i.p., mice): 0.5 mg/kg
- immobility of the mouse in the Forced Swim Test (392098 at a dose as low as 25 micrograms/kg combined with a subeffective dose of imipramine (5 mg/kg)): statistically significant reduction in immobility
- effect in the Forced Swim Test (392098 by itself, low doses (0.025-0.1 mg/kg), mice): no effect
- shift in the dose response curve of 392098 (administered in combination with a subeffective dose of imipramine, Forced Swim Test, mice): at least 20 fold
